Experimental data published in US20230348376A1 (TEIJIN PHARMA LIMITED, priority 2020, published 2023).
Like-named read-outs stand apart in the source and are kept apart here.

How the values were obtained:
[1] = test system: rat oligodendrocyte progenitor cells; test: Promotive activity of rat oligodendrocyte progenitor cell differentiation-2 (immunostaining of MBP); format: cell-based; settings: vitamin D derivative 2 μM, T3 30 nM, 4 days
How it was run: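 Rat OPCs prepared by shaking in separation medium about 22 h at 37 °C, 200 rpm, and collecting the supernatant.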

[2] = Evaluation of brain penetration in mice (blood and brain concentration at brain Cmax); format: in vivo, mouse; settings: 1 mg/kg single oral dose, C57BL/6J mice; for Concentration in blood (mean ± SD) at brain Cmax / Concentration in brain (mean ± SD) at brain Cmax: n=3; for Kp: male, mouse, brain/plasma, read-out: Concentration in brain/in blood ratio at brain Cmax
Method: The administration solution was administered orally to C57BL/6J mice (8 weeks old, male, n=3) at a single dose (1 mg/kg). Mice were euthanized at 6 points of 0.25, 0.5, 1, 2, 4, and 8 hours after administration, and plasma and brain sampling were performed. After preparing a homogenate from the collected brain using Tissue Lyser II (QIAGEN #85300), acetonitrile was added to the homogenate and the homogenate was centrifuged (12000 rpm, 5 minutes) to extract the administered test compound contained in the brain. Similarly, the plasma was subjected to addition of acetonitrile and centrifugal separation to extract the administered test compound contained in the plasma. Each extracted sample was subjected to measurement of the concentration of administered test compound using LC/MS/MS (SHIMADZU UFLC/MS/MS (8050)).
Test 2 [0.2 mg/kg Administration Study] […] The administration solution was administered orally to C57BL/6J mice (8 weeks old, male, n=3) at a single dose (0.2 mg/kg). Mice were euthanized at 6 points of 0.25, 0.5, 1, 2, 4, and 8 hours after administration, and plasma and brain sampling were performed. After preparing a homogenate from the collected brain using Tissue Lyser II (QIAGEN #85300), acetonitrile was added to the homogenate and the homogenate was centrifuged (12000 rpm, 5 minutes) to extract the administered compound contained in the brain. Similarly, the plasma was subjected to addition of acetonitrile and centrifugal separation to extract the administered test compound contained in the plasma. Each extracted sample was subjected to measurement of the concentration of administered test compound using LC/MS/MS (SHIMADZU UFLC/MS/MS (8050)).

human VDR = target: T1, human VDR (Homo sapiens, UniProt P11473); test: Evaluation of VDR transcription activity in human osteoblasts (HOS cells), luciferase reporter; settings: Activity (EC50, VDR transcription activity), HOS cells transfected with human VDR, human RXRα and DR3 luciferase reporter; 21 hours
T1 sequence (P11473 1-427): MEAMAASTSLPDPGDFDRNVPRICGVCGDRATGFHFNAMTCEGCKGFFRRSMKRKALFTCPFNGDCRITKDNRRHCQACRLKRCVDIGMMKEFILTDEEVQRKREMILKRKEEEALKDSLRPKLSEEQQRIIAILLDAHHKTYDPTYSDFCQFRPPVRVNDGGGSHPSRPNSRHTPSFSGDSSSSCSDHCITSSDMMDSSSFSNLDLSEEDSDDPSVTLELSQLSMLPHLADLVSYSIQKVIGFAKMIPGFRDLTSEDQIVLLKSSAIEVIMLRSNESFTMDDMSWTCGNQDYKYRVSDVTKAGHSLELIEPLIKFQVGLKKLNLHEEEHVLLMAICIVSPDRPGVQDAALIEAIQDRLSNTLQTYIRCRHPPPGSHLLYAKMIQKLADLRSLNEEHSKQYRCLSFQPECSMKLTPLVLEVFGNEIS
T1 sequence (P19793 1-462 partner): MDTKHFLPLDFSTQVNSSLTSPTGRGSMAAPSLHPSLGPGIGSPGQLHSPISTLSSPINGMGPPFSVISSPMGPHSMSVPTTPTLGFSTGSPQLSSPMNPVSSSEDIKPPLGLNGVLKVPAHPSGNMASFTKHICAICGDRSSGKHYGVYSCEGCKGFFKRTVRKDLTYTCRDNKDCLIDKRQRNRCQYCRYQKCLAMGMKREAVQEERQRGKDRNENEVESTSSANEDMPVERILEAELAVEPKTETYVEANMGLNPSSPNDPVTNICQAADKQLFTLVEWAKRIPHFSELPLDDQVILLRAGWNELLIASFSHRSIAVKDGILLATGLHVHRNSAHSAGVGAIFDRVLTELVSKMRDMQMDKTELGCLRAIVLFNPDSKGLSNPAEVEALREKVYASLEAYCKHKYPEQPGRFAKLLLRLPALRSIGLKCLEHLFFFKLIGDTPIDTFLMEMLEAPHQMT

Structure (SMILES)	Mean (number of MBP-positive cells/number of Hoechst33342-positive cells) ([1]; Test 1)	Concentration in blood (mean ± SD) at brain Cmax [2]	Concentration in brain (mean ± SD) at brain Cmax [2]	Kp ([2]; C57BL/6J, po, 1 mg/kg)	EC50 (human VDR)	Mean (number of MBP-positive cells/number of Hoechst33342-positive cells) ([1]; Test 2)	Kp [2]
C=C1/C(=C\C=C2/CCC[C@]3(C)[C@@H]([C@H](C)CN4CC[C@@H](CC(F)F)C4)CC[C@@H]23)C[C@@H](O)C[C@@H]1O [Compound B037, (1R,3S,Z)-5-(2-((1R,3aS,7aR,E)-1-((S)-1-((S)-3-(2,2-difluoroethyl)pyrrolidin-1-yl)propan-2-yl)-7a-methyloctahydro-4H-inden-4-ylidene)ethylidene)-4-methylenecyclohexane-1,3-diol]	0.49	88 ± 19 nM	74 ± 17 pmol/g	0.84	10 to 100 nM	–	–
C=C1[C@H](O)CC(=C/C=C2\CCC[C@]3(C)[C@@H]([C@H](C)CN4CC[C@@H](CC(F)F)C4)CC[C@@H]23)C[C@H]1O [Compound B041, (1R,3R)-5-(2-((1R,3aS,7aR,E)-1-((S)-1-((S)-3-(2,2-difluoroethyl)pyrrolidin-1-yl)propan-2-yl)-7a-methyloctahydro-4H-inden-4-ylidene)ethylidene)-2-methylenecyclohexane-1,3-diol]	0.56	207 ± 59 nM	317 ± 19 pmol/g	1.53	1 to 10 nM	–	–
C[C@H](CN1CC[C@H](CC(F)F)C1)[C@H]1CC[C@H]2/C(=C/C=C3C[C@@H](O)C[C@H](O)C3)CCC[C@]12C [Compound B042, (1R,3R)-5-(2-((1R,3aS,7aR,E)-1-((S)-1-((R)-3-(2,2-difluoroethyl)pyrrolidin-1-yl)propan-2-yl)-7a-methyloctahydro-4H-inden-4-ylidene)ethylidene)cyclohexane-1,3-diol]	0.62	79 ± 7 nM	60 ± 5 pmol/g	0.75	10 to 100 nM	0.53	–
C[C@H](CN1CC[C@H](OCC(F)F)C1)[C@H]1CC[C@H]2/C(=C/C=C3C[C@@H](O)C[C@H](O)C3)CCC[C@]12C [Compound B057, (1R,3R)-5-(2-((1R,3aS,7aR,E)-1-((S)-1-((S)-3-(2,2-difluoroethoxy)pyrrolidin-1-yl)propan-2-yl)-7a-methyloctahydro-4H-inden-4-ylidene)ethylidene)cyclohexane-1,3-diol]	–	271 ± 16 nM	141 ± 8 pmol/g	0.52	100 to 1000 nM	0.57	–
C[C@H](CN1CC[C@@H](CCC(F)F)C1)[C@H]1CC[C@H]2/C(=C/C=C3C[C@@H](O)C[C@H](O)C3)CCC[C@]12C [Compound B064, (1R,3R)-5-(2-((1R,3aS,7aR,E)-1-((S)-1-((R)-3-(3,3-difluoropropyl)pyrrolidin-1-yl)propan-2-yl)-7a-methyloctahydro-4H-inden-4-ylidene)ethylidene)cyclohexane-1,3-diol]	–	72 ± 11 nM	38 ± 12 pmol/g	0.53	100 to 1000 nM	0.61	–
C=C1[C@H](O)CC(=C/C=C2\CCC[C@]3(C)[C@@H]([C@H](C)CN4CCC(C(C)(F)F)CC4)CC[C@@H]23)C[C@H]1O [Compound C055, (1R,3R)-5-(2-((1R,3aS,7aR,E)-1-((S)-1-(4-(1,1-difluoroethyl)piperidin-1-yl)propan-2-yl)-7a-methyloctahydro-4H-inden-4-ylidene)ethylidene)-2-methylenecyclohexane-1,3-diol]	–	190 ± 23 nM	338 ± 36 pmol/g	1.78	10 to 100 nM	0.48	–
C[C@H](CN1CCOC2(CC2)C1)[C@H]1CC[C@H]2/C(=C/C=C3C[C@@H](O)C[C@H](O)C3)CCC[C@]12C [Compound D019, (1R,3R)-5-(2-((1R,3aS,7aR,E)-1-((S)-1-(4-oxa-7-azaspiro[2.5]octan-7-yl)propan-2-yl)-7a-methyloctahydro-4H-inden-4-ylidene)ethylidene)cyclohexane-1,3-diol]	–	280 ± 53 nM	811 ± 163 pmol/g	–	10 to 100 nM	0.57	2.89
